Assay: Human HepG2 cell viability assay in 384 well format
Assay type: toxicity, cell-based
Parameters: dose 125 nL, time 70.5 hour; concentration not given beside the values
Conditions: HepG2 cells, read-out: Inhibition

Row | Compound | cytotoxicity at 70.5 h [%]
1 | COc1ccc(Cl)cc1-c1nc(N)nc(N(C)C)n1 | -6.28
2 | Cc1cc(NCCN)nc2ccccc12 | -11.3
3 | COC1CCCN(Cc2nc(Cc3ccccc3F)no2)C1 (configuration not stated) | -5.83
4 | Cc1ccnc(NC(=O)CCNC(=O)c2ccccc2Cl)c1 | -1.99
5 | Cc1ccc(OCc2occc2C(=O)O)cc1 | -5.9
6 | CCOC(=O)CNC(=O)c1cccnc1Oc1ccc(Cl)cc1 | -9.7
7 | COC(=O)c1cnc2c(c(C)nn2C)c1OC | -3.27
8 | NC(=O)C(Cc1ccccc1)NS(=O)(=O)Cc1ccccc1Cl (configuration not stated) | 7.03
9 | CCn1cnnc1CN(C)C(=O)C1CCC(=O)N(CC2CCCCC2)C1 (configuration not stated) | -6.42
10 | NS(=O)(=O)c1cccnc1NCc1ccco1 | -4.56
11 | CC(=O)NCCC(=O)NCc1cccnc1-n1cnc2ccccc21 | -8.92
12 | CCC(=O)N1CCCc2c(cnn2C)C1 | 23.9
13 | Cn1ncc2c1CCCN(C(=O)C1CCC1)C2 | -2.82
14 | O=C(c1sccc1-n1cnnn1)N1CCC(Cc2ccccc2)CC1 | -4.62
15 | CCOc1ccccc1-c1noc(CN(C)Cc2cnn(C)c2)n1 | 2
16 | COc1ccc(CCCN(C)C(=O)c2cc(C(C)=O)c[nH]2)cc1OC | -8.38
17 | CNC(=O)NC(=O)C(NCc1cccs1)c1ccccc1 (configuration not stated) | 34.4
18 | COc1ccc(CN(C)C(=O)CSc2nnc(N)s2)c(OC)c1OC | -5.3
19 | CN(CC(=O)NCCc1ccccn1)C(=O)c1cccs1 | -19.9
20 | CC1CCN(S(=O)(=O)N2CCc3sccc3C2)CC1 | 45
21 | COc1ccc(C2C3=C(CCCC3=O)Nc3nc(SC)nc(N)c32)cc1 (configuration not stated) | 6.58
22 | CC(Sc1nc(N)cc(N)n1)c1nc(C(C)(C)C)no1 (configuration not stated) | -2.01
23 | CS(=O)(=O)N1CCN(C(=O)CN2CCCc3c(F)cc(F)cc32)CC1 | -3.95
24 | COc1ccnc(N2CCN(CC(=O)N3CCOCC3)CC2)n1 | 2.32

Row | Compound | cytotoxicity at 70.5 h [%]
25 | CC(CNC(=O)Nc1ccc(C#N)cc1)N1CCc2ccccc21 (configuration not stated) | 4.28
26 | CCOC(=O)CCC(=O)NC(C)c1ccc(NC(=O)CC)cc1 (configuration not stated) | -3.08
27 | O=C(c1cc(Cl)c(Br)[nH]1)N1CCN(Cc2ccco2)CC1 | -6.08
28 | COc1c(Br)cc(Cl)cc1NCc1c(C)noc1C | 11.5
29 | O=C(NCc1nnc2n1CCC2)c1cn(-c2cccc(Br)c2)nn1 | -6.53
30 | N#Cc1c(F)cccc1N1CCC(NS(=O)(=O)c2cccs2)CC1 | 13.5
31 | CC(C)c1nc(CN2CCN(C(=O)CN3CCOCC3)CC2)no1 | 28.7
32 | CN(C)C(CNC(=O)c1nc(N2CCOCC2)ncc1Cl)c1ccco1 (configuration not stated) | -19.3
33 | CCCS(=O)(=O)NC(C)C(=O)NCc1ccc(N2CCCC2)nc1 (configuration not stated) | -7.44
34 | O=S(=O)(NCc1cn2ccccc2n1)N1CCOCC1 | -12.1
35 | CN1CCC(NC(=O)NCc2csc(Br)c2)CC1 | -10.7
36 | CN(C)c1nc(N)nc(CN2CCCC2c2ccsc2)n1 (configuration not stated) | -7.29
37 | COc1ccccc1OCCNc1snc(Cl)c1C#N | -15.5
38 | O=C(CCNC(=O)c1ccc(Cl)cc1)NCc1nc(C2CC2)no1 | 19.3
39 | CCN(CC)S(=O)(=O)c1ccc(CCC(=O)NCc2cc(C)on2)cc1 | -7.82
40 | Cc1ccsc1C(=O)NC1CCS(=O)(=O)c2ccccc21 (configuration not stated) | -5.17
41 | COc1cc(CNCC(O)c2ccc(F)c(F)c2)cc2c1OCO2 (configuration not stated) | 29.9
42 | Cc1ccc(C(=O)Nc2ccccc2F)n1C | -11.5
43 | Cc1nc(CCNC(=O)NCc2ccc(N(C)C)nc2)cs1 | -8.72
44 | COc1ccc(Cl)cc1NCC(=O)NCCNc1cnccn1 | -10.9
45 | Cc1cccc(OC2CCN(C(=O)NCc3cc[nH]n3)CC2)c1C | 0.923
46 | Cc1nn(CC(O)CN2CCc3ccccc3C2)c(=O)c(C#N)c1C (configuration not stated) | -19.9
47 | CCOC(=O)CCCNC(=O)CN1CCN(c2ncccn2)CC1 | -13.6
48 | N#Cc1cccnc1N1CCN(C(=O)CCC(=O)c2cccs2)CC1 | 14.6

Row | Compound | cytotoxicity at 70.5 h [%]
49 | CCc1c(C(=O)NCC2CCS(=O)(=O)C2)cnn1-c1ccc(C)cc1 (configuration not stated) | -20
50 | CCN(CC(=O)NC(C)C)S(=O)(=O)N1CCCCCC1 | -5.99
51 | O=C1NCCCCC1Sc1ccc(F)cc1F (configuration not stated) | 7.77
52 | Cc1cc(=O)[nH]c(-n2nc(-c3ccccc3)cc2N)n1 | 12.5
53 | COc1ccc2nnc(CCC(=O)Nc3nc4c(s3)CCC4)n2n1 | -25.1
54 | CCN1CCN(C(C)CNC(=O)Nc2nnc(C)s2)CC1 (configuration not stated) | -10.5
55 | Cc1cc(NC(=O)NCC2CCN(C(C)C)C2)no1 (configuration not stated) | -5.36
56 | COc1ccc2oc(C(C)NC(=O)NC3CCN(C)CC3)c(C)c2c1 (configuration not stated) | -13.4
57 | CCS(=O)(=O)NCCNc1cc(-n2cccc2)ncn1 | -0.787
58 | O=S(=O)(NCCNc1cc(-n2cccc2)ncn1)c1cccs1 | -2.52
59 | CS(=O)(=O)N1CCN(c2cc(-n3cccc3)ncn2)CC1 | -4.46
60 | CC(=O)OC1CN(c2nc3c(Cl)cccc3s2)C1 | -9.84
61 | CC(=O)OC1CN(c2nc3c(C)cccc3s2)C1 | -15.1
62 | CNC(=O)c1ccc2c(OC)n(C)nc2c1 | -1.72
63 | CN(C)CC1CSCCCN1C(=O)c1cccc(C(F)(F)F)c1 (configuration not stated) | 3.74
64 | CN(C)CC1CSCCCN1S(=O)(=O)Cc1ccc(C(F)(F)F)cc1 (configuration not stated) | -0.0412
65 | Cc1cccc(C(=O)N2CCCSCC2CN2CCCC2)c1 (configuration not stated) | -0.415
66 | CSc1ccccc1NC(=O)C1CSc2ncc(C)c(=O)n2C1 (configuration not stated) | -10.7
67 | COc1ccc(C)cc1NC(=O)C1CSc2ncc(C)c(=O)n2C1 (configuration not stated) | 8.57
68 | Cc1cnc2n(c1=O)CC(C(=O)Nc1ccon1)CS2 (configuration not stated) | -13.7
69 | CCc1c(C)nc2n(c1=O)CC(C(=O)Nc1ccccc1C)CS2 (configuration not stated) | 4.11
70 | CCc1c(C)nc2n(c1=O)CC(C(=O)Nc1ncccc1C)CS2 (configuration not stated) | -8.04
71 | COc1cc(C(=O)NCCc2ccccc2OC)on1 | -1.09
72 | COc1cc(C(=O)NCCc2ccc(Cl)cc2)on1 | 0.265

Row | Compound | cytotoxicity at 70.5 h [%]
73 | O=S(=O)(NCC(O)c1ccc2c(c1)CCO2)c1ccccc1F (configuration not stated) | -13.3
74 | O=C(NCC1(O)CCc2ccccc2C1)c1cccs1 (configuration not stated) | -14.5
75 | O=C(Cn1c(=O)oc2ccccc21)NCC1(O)CCc2ccccc2C1 (configuration not stated) | -2.64
76 | O=C(NCc1cccs1)NCC1(O)CCc2ccccc2C1 (configuration not stated) | -5.04
77 | COCCN(Cc1ccoc1)C(=O)c1ccccn1 | -3.55
78 | COCCN(Cc1ccoc1)C(=O)c1c(F)cccc1F | -3.64
79 | CCOc1ccc(S(=O)(=O)N(CCOC)Cc2ccoc2)cc1F | -11.6
80 | O=S(=O)(NCCC(O)c1ccoc1)c1ccc(Cl)s1 (configuration not stated) | -0.192
81 | COC(=O)c1sccc1S(=O)(=O)NCCC(O)c1ccoc1 (configuration not stated) | -0.756
82 | O=C(NCCC(O)c1ccoc1)Nc1cccs1 (configuration not stated) | -9.28
83 | COC1(CNC(=O)c2ccsc2)CCSC1 (configuration not stated) | -13
84 | COC1(CNC(=O)CCCc2ccccc2)CCSC1 (configuration not stated) | -0.238
85 | COC1(CNC(=O)c2ccc3nsnc3c2)CCSC1 (configuration not stated) | -18.3
86 | COC1(CNC(=O)c2ccc(Cl)c(Cl)c2)CCSC1 (configuration not stated) | -15
87 | COC1(CNS(=O)(=O)c2ccccc2Cl)CCSC1 (configuration not stated) | -7.26
88 | Cc1ncc(C(=O)N2C[C@H]3CC[C@@H]2CN(S(=O)(=O)N(C)C)C3)c(C)n1 | -11.5
89 | Cn1c(Cn2cccn2)nnc1C1CCCN(c2ccncc2F)C1 (configuration not stated) | 3.69
90 | CN1CC(c2ccccc2)CC12CCN(C(=O)c1ccc(F)cc1)CC2 (configuration not stated) | -4.24
91 | CCc1cc(NCCNc2cccnc2)n2nccc2n1 | -7.64
92 | Cc1cccc(C(=O)N2CCCCC2c2ccc(CN(C)C)cc2)n1 (configuration not stated) | 18.3
93 | O=C1CC[C@H]2CN(Cc3ccc(Cl)s3)CC[C@H]2N1CCc1c[nH]cn1 | -7.7
94 | CSc1ncc(C(=O)N2C[C@H]3CC[C@@H]2CN(Cc2ccccc2)C3)cn1 | -1.13
95 | CC(=O)Nc1ccc(CNC2CC(=O)N(Cc3cccc(F)c3)C2)cc1 (configuration not stated) | -8.05
96 | CCCn1c(C)c(CC(=O)NC)c2c1CC(C)(C)CC2=O | -6.96

Row | Compound | cytotoxicity at 70.5 h [%]
97 | O=C(CCn1cccn1)N1C[C@@H]2CC[C@H](C1)N(Cc1ccccn1)C2=O | -2.38
98 | Cn1ccc2ccc(C(=O)N3CCN(C(=O)N4CCOCC4)CC3)cc21 | 23.3
99 | Cc1nc(CCCNC(=O)C2CC(=O)N(C(C)(C)C)C2)sc1C (configuration not stated) | -7.69
100 | COc1cccc(N2CCN(Cc3ncc[nH]3)CC2=O)c1 | -10.6
101 | CC(C)N1CCCC2(CCN(C(=O)CCCn3ccnc3)C2)C1=O (configuration not stated) | -12.1
102 | COC(=O)c1cccc(C(=O)N2CCCCC2CCn2ccnc2C)c1 (configuration not stated) | -1.17
103 | CCC(=O)N1CCC2(CC1)c1nc[nH]c1CCN2S(C)(=O)=O | -4.48
104 | CCCOCCN1CCC2(CC1)CC(c1ccccc1)C(=O)N2C (configuration not stated) | 25.1
105 | CCC(CO)N(Cc1ccccn1)C(=O)c1ccc2c(c1)CCO2 (configuration not stated) | 15
106 | CN1CCN(Cc2nnc(C3CCN(CC4CC4)CC3)n2C)CC1 | -2.48
107 | COc1ccc(C(C(=O)O)N2CCCN(C3CCCCC3)CC2)cn1 (configuration not stated) | -10.2
108 | Cc1nc(C)c(CC(=O)N2C[C@@H]3CC[C@H](C2)N(CC2CCC2)C3)c(=O)[nH]1 | -6.37
109 | COc1ccccc1C1CNC(=O)c2nc(-c3ncc[nH]3)[nH]c2C1 (configuration not stated) | -10.6
110 | Cc1ncc(-c2nc3cc(S(=O)(=O)N4CCCC4)ccc3n2C)cn1 | -0.434
111 | CCn1nc(C)c(CNC(=O)c2cn(CC3CCCO3)nn2)c1C (configuration not stated) | -1.67
112 | COCCN1CCCC(O)(CN2CCN(c3ncccc3C)CC2)C1=O (configuration not stated) | -7.68
113 | NCC1CN(c2nc(-c3ccccc3)nc3c2CCNCC3)CCO1 (configuration not stated) | 3.02
114 | CC(C)N(Cc1ccc(C(=O)O)o1)C(C)C | -7.28
115 | O=C1NCCCCC1NCc1csc(-c2ccc(F)cc2)n1 (configuration not stated) | 6.14
116 | CC1CCN(CCCNS(=O)(=O)c2cccc(F)c2)CC1 | -13.7
117 | c1ccc2c(c1)SCCC2NCc1ccc(N2CCOCC2)cc1 (configuration not stated) | -3.16

Source: ChEMBL document CHEMBL3507680, “University of Dundee, Gates Library screen for HepG2 cell viability”
